system: organophosphorous agent resistant two-spotted spider mites; test: Effect on Two-spotted Spider Mite (spray on kidney bean leaves); type: in vivo; details: 125 ppm, water dispersible powder of Formulation Example 1 sprayed, 17 female adults, 25° C., 65% humidity, 3 days
Excerpt: Effect on Two-spotted Spider Mite
17 female adults of organophosphorous agent resistant two-spotted spider mites were inoculated onto the first leaves of kidney beans seeded onto 3.5 inch pots and germinated 7 to 10 days before, onto which each of liquid agents, diluted with water so as to adjust the respective concentration of the chemical compounds to 125 ppm according to the formulation of the water dispersible powder shown in the aforementioned Formulation Example 1, was sprayed. After they were left in a thermostatic chamber at 25° C. in 65% humidity for 3 days, the rate of killed adults was investigated. The examination was repeated twice. As the results, the following chemical compounds killed 100% of the adults.

Row | Compound | rate of killed adults
1 | FC(F)(F)c1ccc(N2[C@@H]3CC[C@H]2C[C@@H](Oc2ccc(C(F)(F)F)cc2SCC2CC2)C3)nc1 [2-166] | 100%
2 | N#Cc1ccc(OC2CCN(c3ccc(C(F)(F)F)cn3)CC2)cc1 [1-29] | 100%
3 | CCC(C)C(O)c1cc(C(F)(F)F)ccc1OC1CC2CCC(C1)N2c1ccc(C(F)(F)F)cn1 (stereo not drawn) [2-194] | 100%
4 | COc1cc(C(F)(F)F)ccc1OC1CC2CCC(C1)N2c1ccc(C(F)(F)F)cn1 (stereo not drawn) [2-77, 3α-[2-methoxy-4-(trifluoromethyl)phenoxy]-8-[5-(trifluoromethyl)-2-pyridyl]-8-azabicyclo[3.2.1]octane] | 100%
5 | CCC1COC(c2cc(C(F)(F)F)ccc2O[C@@H]2[C@@H]3CC[C@H]2CN(c2ccc(C(F)(F)F)cn2)C3)N1 (stereo partly drawn) [5-263] | 100%
6 | CC(C)C(C)OC(=O)c1cc(C(F)(F)F)ccc1OC1CC2CCC(C1)N2c1ccc(C(F)(F)F)cn1 (stereo not drawn) [2-232] | 100%
7 | COC=Cc1cc(C(F)(F)F)ccc1O[C@@H]1[C@@H]2CC[C@H]1CN(c1ccc(C(F)(F)F)cn1)C2 [5-247] | 100%
8 | FC(F)(F)c1ccc(N2CCC(Oc3ccc(C(F)(F)F)cc3COC3CCCO3)CC2)nc1 (stereo not drawn) [1-180] | 100%
9 | [O-][S+](c1ccc(OC2CCN(c3ccc(C(F)(F)F)cn3)CC2)cc1)C(F)(F)F (stereo not drawn) [1-150] | 100%
10 | CCCOc1cc(C#N)ccc1O[C@@H]1[C@@H]2CC[C@H]1CN(c1ccc(C(F)(F)F)cn1)C2 [5-102] | 100%
11 | CCCN(CCC)c1cc(C(F)(F)F)ccc1OC1CC2CCC(C1)N2c1ccc(C(F)(F)F)cn1 (stereo not drawn) [2-159] | 100%
12 | O=C(OC1CCCC1)c1cc(C(F)(F)F)ccc1OC1CC2CCC(C1)N2c1ccc(C(F)(F)F)cn1 (stereo not drawn) [2-223] | 100%
13 | CC(Cl)COc1cc(C(F)(F)F)ccc1OC1C2CCC1CN(c1ccc(C(F)(F)F)cn1)C2 (stereo not drawn) [5-138] | 100%
14 | Cc1cnc(-c2cc(C(F)(F)F)ccc2OC2CC3CCC(C2)N3c2ccc(C(F)(F)F)cn2)o1 (stereo not drawn) [2-205] | 100%
15 | CC(C)=NOc1cc(C(F)(F)F)ccc1OC1CC2CCC(C1)N2c1ccc(C(F)(F)F)cn1 (stereo not drawn) [2-212, 3α-[2-isopropylideneaminoxy-4-(trifluoromethyl)phenoxy]-8-[5-(trifluoromethyl)-2-pyridyl]-8-azabicyclo[3.2.1]octane] | 100%
16 | CCS(=O)(=O)Oc1cc(C(F)(F)F)ccc1OC1CC2CCC(C1)N2c1ccc(C(F)(F)F)cn1 (stereo not drawn) [2-152] | 100%
17 | O=[N+]([O-])c1cc(C(F)(F)F)ccc1O[C@@H]1[C@@H]2CC[C@H]1CN(c1ccc(C(F)(F)F)cn1)C2 [5-38] | 100%
18 | CS(=O)(=O)Oc1cc(C(F)(F)F)ccc1OC1C2CCC1CN(c1ccc(C(F)(F)F)cn1)C2 (stereo not drawn) [5-161] | 100%
19 | CC(CBr)OC(=O)c1cc(C(F)(F)F)ccc1OC1CC2CCC(C1)N2c1ccc(C(F)(F)F)cn1 (stereo not drawn) [2-236] | 100%
20 | CCCCOCc1cc(C(F)(F)F)ccc1OC1C2CCC1CN(c1ccc(C(F)(F)F)cn1)C2 (stereo not drawn) [5-223] | 100%
21 | C=C(Cl)COc1cc(C(F)(F)F)ccc1OC1CC2CCC(C1)N2c1ccc(C(F)(F)F)cn1 (stereo not drawn) [2-183] | 100%
22 | COc1cc(C(F)(F)F)ccc1O[C@@H]1[C@@H]2CC[C@H]1CN(c1ccc(C(F)(F)F)cn1)C2 [5-89] | 100%

Row | Compound | rate of killed adults
23 | CC(Br)COc1cc(C(F)(F)F)ccc1OC1CC2CCC(C1)N2c1ccc(C(F)(F)F)cn1 (stereo not drawn) [2-195] | 100%
24 | CC(=O)OCCOc1cc(C(F)(F)F)ccc1OC1C2CCC1CN(c1ccc(C(F)(F)F)cn1)C2 (stereo not drawn) [5-134] | 100%
25 | CCC1COC(c2cc(C(F)(F)F)ccc2OC2CC3CCC(C2)N3c2ccc(C(F)(F)F)cn2)=N1 (stereo not drawn) [2-220] | 100%
26 | CCCc1cc(Cl)ccc1OC1CCN(c2ccc(C(F)(F)F)cn2)CC1 [1-57] | 100%
27 | FC(F)(F)c1ccc(N2CCC(Oc3ccc(C(F)(F)F)cc3CCl)CC2)nc1 [1-81] | 100%
28 | CC1CN=C(c2cc(C(F)(F)F)ccc2OC2CC3CCC(C2)N3c2ccc(C(F)(F)F)cn2)O1 (stereo not drawn) [2-201] | 100%
29 | CCCOc1cc(C(F)(F)F)ccc1OC1CC2CCC(C1)N2c1ccc(C(F)(F)F)c[n+]1[O-] (stereo not drawn) [2-83, 3α-[2-propoxy-4-(trifluoromethyl)phenoxy]-8-[5-(trifluoromethyl)-2-pyridyl-1-oxy]-8-azabicyclo[3.2.1]octane] | 100%
30 | CCCCOc1cc(C(F)(F)F)ccc1OC1CC2CCC(C1)N2c1ccc(C(F)(F)F)cn1 (stereo not drawn) [2-97] | 100%
31 | CCCOc1cc(C(F)(F)F)ccc1OC1CCN(c2ccc(C(F)(F)F)cn2)CC1CCC (stereo not drawn) [1-192] | 100%
32 | C=CCc1cc(C(F)(F)F)ccc1O[C@@H]1[C@@H]2CC[C@H]1CN(c1ccc(C(F)(F)F)cn1)C2 [5-75] | 100%
33 | COCCOc1cc(C(F)(F)F)ccc1O[C@@H]1[C@@H]2CC[C@H]1CN(c1ccc(C#N)cn1)C2 [5-125] | 100%
34 | CCC(C)OCc1cc(C(F)(F)F)ccc1O[C@@H]1[C@@H]2CC[C@H]1CN(c1ccc(C(F)(F)F)cn1)C2 (stereo partly drawn) [5-242] | 100%
35 | CCCN(C)c1cc(C(F)(F)F)ccc1OC1C2CCC1CN(c1ccc(C(F)(F)F)cn1)C2 (stereo not drawn) [5-191] | 100%
36 | FC(F)(F)c1ccc(N2C3CCC2CC(Oc2ccc(C(F)(F)F)cc2C2OCCO2)C3)nc1 (stereo not drawn) [2-169, 3α-{2-([1,3]dioxolane-yl)-4-(trifluoromethyl)phenoxy}-8-[5-(trifluoromethyl)-2-pyridyl]-8-azabicyclo[3.2.1]octane] | 100%
37 | Cc1ccc(OC2CCN(c3ccc(C(F)(F)F)cn3)CC2)c(C)c1 [1-44] | 100%
38 | CC(O)COc1cc(C(F)(F)F)ccc1OC1C2CCC1CN(c1ccc(C(F)(F)F)cn1)C2 (stereo not drawn) [5-127] | 100%
39 | CCCCOc1cc(C(F)(F)F)ccc1OC1CCN(c2ccc(C(F)(F)F)cn2)CC1 [1-101] | 100%
40 | COCOCCOc1cc(C(F)(F)F)ccc1OC1CCN(c2ccc(C(F)(F)F)cn2)CC1 [1-117] | 100%
41 | CCC(=O)c1cc(C(F)(F)F)ccc1OC1CCN(c2ccc(C(F)(F)F)cn2)CC1 [1-179] | 100%
42 | CC(C)=COc1cc(C(F)(F)F)ccc1O[C@H]1C[C@H]2CC[C@@H](C1)N2c1ccc(C(F)(F)F)cn1 [2-245, 3α-[2-(2-methylpropenyloxy)-4-(trifluoromethyl)phenoxy]-8-[5-(trifluoromethyl)-2-pyridyl]-8-azabicyclo[3.2.1]octane] | 100%
43 | CON=Cc1cc(C(F)(F)F)ccc1OC1CC2CCC(C1)N2c1ccc(C(F)(F)F)cn1 (stereo not drawn) [2-211] | 100%
44 | FC(F)(F)c1ccc(N2CCC(Oc3ccc(Br)cc3)CC2)nc1 [1-19] | 100%

Row | Compound | rate of killed adults
45 | CCCOc1cc(C(F)(F)F)ccc1OC1CC2CCC(C1)N2c1ccc(Br)cn1 (stereo not drawn) [2-86] | 100%
46 | O=C(OCC1CC1)c1cc(C(F)(F)F)ccc1OC1CC2CCC(C1)N2c1ccc(C(F)(F)F)cn1 (stereo not drawn) [2-237] | 100%
47 | FC(F)(F)c1ccc(N2CC3CCC(C2)C3Oc2ccc(C(F)(F)F)cc2OCCCl)nc1 (stereo not drawn) [5-147] | 100%
48 | CC(COc1cc(C(F)(F)F)ccc1OC1C2CCC1CN(c1ccc(C(F)(F)F)cn1)C2)=NO (stereo not drawn) [5-182] | 100%
49 | FC(F)(F)c1ccc(O[C@@H]2[C@@H]3CC[C@H]2CN(c2ccc(C(F)(F)F)cn2)C3)cc1 [5-264] | 100%
50 | Cc1ccc(N2CC3CCC(C2)C3Oc2ccc(C(F)(F)F)cc2OC2CC2(Cl)Cl)nc1 (stereo not drawn) [5-210] | 100%
51 | CC(COc1cc(C(F)(F)F)ccc1OC1C2CCC1CN(c1ccc(C(F)(F)F)cn1)C2)=NO (stereo not drawn) [5-183] | 100%
52 | CCCOCc1cc(C(F)(F)F)ccc1OC1CC2CCC(C1)N2c1ccc(C(F)(F)F)cn1 (stereo not drawn) [2-171] | 100%
53 | CCCOc1cc(C(F)(F)F)ccc1OC1CC2CCC(C1)N2c1ccc(C)cn1 (stereo not drawn) [2-89] | 100%
54 | FC(F)(F)c1ccc(N2CC3CCC(C2)C3Oc2ccc(C(F)(F)F)cc2OCc2ccsc2)nc1 (stereo not drawn) [5-208] | 100%
55 | FC(F)(F)c1ccc(N2C3CCC2CC(Oc2ccc(C(F)(F)F)cc2OCCCl)C3)nc1 (stereo not drawn) [2-138] | 100%
56 | COC(C)COc1cc(C(F)(F)F)ccc1OC1C2CCC1CN(c1ccc(C(F)(F)F)cn1)C2 (stereo not drawn) [5-128] | 100%
57 | CCN(C)C(=O)c1cc(C(F)(F)F)ccc1O[C@@H]1[C@@H]2CC[C@H]1CN(c1ccc(C(F)(F)F)cn1)C2 [5-249] | 100%
58 | Cc1cc(F)ccc1OC1CCN(c2ccc(C(F)(F)F)cn2)CC1 [1-48] | 100%
59 | CC(C)Oc1cc(C(F)(F)F)ccc1OC1CC2CCC(C1)N2c1ccc(C(F)(F)F)cn1 (stereo not drawn) [2-96] | 100%
60 | COC(C)(C)COc1cc(C(F)(F)F)ccc1OC1C2CCC1CN(c1ccc(C(F)(F)F)cn1)C2 (stereo not drawn) [5-130] | 100%
61 | CCCC(=O)c1cc(C(F)(F)F)ccc1OC1C2CCC1CN(c1ccc(C(F)(F)F)cn1)C2 (stereo not drawn) [5-240] | 100%
62 | O=C(OCC(F)(F)F)c1cc(C(F)(F)F)ccc1OC1CC2CCC(C1)N2c1ccc(C(F)(F)F)cn1 (stereo not drawn) [2-240] | 100%
63 | CC(F)COc1cc(C(F)(F)F)ccc1OC1CC2CCC(C1)N2c1ccc(C(F)(F)F)cn1 (stereo not drawn) [2-181] | 100%
64 | CCCN(CCC)c1cc(C(F)(F)F)ccc1OC1CCN(c2ccc(C(F)(F)F)cn2)CC1 [1-174] | 100%
65 | CCCC(=O)Oc1cc(C(F)(F)F)ccc1OC1C2CCC1CN(c1ccc(C(F)(F)F)cn1)C2 (stereo not drawn) [5-199] | 100%
66 | CSCOc1cc(C(F)(F)F)ccc1OC1CC2CCC(C1)N2c1ccc(C(F)(F)F)cn1 (stereo not drawn) [2-182] | 100%

— patent US8101768B2, “Cyclic amine compound and pest control agent” (Nippon Soda Co., Ltd., priority 2004, dated 2012)
